Experiment [1] concerns Gel Filtered Platelets (GFP). As to the kind of experiment: ADP induced aggregation of Gel Filtered Platelets (GFP). Type of experiment: cell-based. To be noted: Homo sapiens, Platelet, 0.05 h, GFP (gel filtered platelets) in Tyrode's buffer, fibrinogen 1 mg/ml, 37°C for 3 min, read-out: IC₅₀(µM) Inhibitor of ADP induced Platelet aggregation. The method, then: The compounds of the above invention are tested for platelet binding inhibitory activity in the following assays: • 1. In-vitro Human Platelet Aggregation in PRP: Blood is drawn from healthy human volunteers who had no medication for at least two weeks. 8.4 ml of venous blood are collected into 1.4 ml of ACD solution (citric acid 0.8 %, sodium citrate 2.2 %, hirudin 0.6 u/ml) and centrifuged for 10 min. at 120 g. The platelet rich plasma (PRP) is carefully removed and remaining blood is further centrifuged at 1200 g for 15 min. to separate platelet poor plasma (PPP). For aggregation studies the aggregometer is adjusted by using PPP and PRP. ADP is then added tp PRP which is kept at 37°C and stirred constantly at 1000 rpm. The aggregation of platelets causes an increase in transparency of PRP which is recorded. • 2. Preparation of Gel Filtered Platelets (GFP): Platelet rich plasma (PRP) is collected as mentioned in the above procedure. Its pH is adjusted to 6.5 with ACD solution and then centrifuged at 285 g for 20 min.. The resulting pellet is resuspended in Tyrode's buffer (NaCl, 7.01 g/l; KCl, 0194 g/l; NaHCO₃, 1.01 g/l; Glucose, 1.09 g/l; NaH₂PO₄, 0.061 g/l; Hepes, 2.380 g/l; albumin, 3.5 g/l) and the platelet suspension is applied on to a ^RSepharose CL 20 column. […] After the addition of fibrinogen (final conc. 1 mg/ml) the aggregation is recorded. […]

In a further experiment the test system is Human Platelet. As to the kind of experiment: In-vitro Human Platelet Aggregation in PRP (ADP induced). Type of experiment: cell-based. To be noted: PRP (platelet rich plasma), 37°C, read-out: IC₅₀(µM) Inhibitor of ADP induced Platelet aggregation. The procedure: The compounds of the above invention are tested for platelet binding inhibitory activity in the following assays: • 1. In-vitro Human Platelet Aggregation in PRP: Blood is drawn from healthy human volunteers who had no medication for at least two weeks. 8.4 ml of venous blood are collected into 1.4 ml of ACD solution (citric acid 0.8 %, sodium citrate 2.2 %, hirudin 0.6 u/ml) and centrifuged for 10 min. at 120 g. The platelet rich plasma (PRP) is carefully removed and remaining blood is further centrifuged at 1200 g for 15 min. to separate platelet poor plasma (PPP). For aggregation studies the aggregometer is adjusted by using PPP and PRP. ADP is then added tp PRP which is kept at 37°C and stirred constantly at 1000 rpm. The aggregation of platelets causes an increase in transparency of PRP which is recorded. • 2. Preparation of Gel Filtered Platelets (GFP): Platelet rich plasma (PRP) is collected as mentioned in the above procedure. Its pH is adjusted to 6.5 with ACD solution and then centrifuged at 285 g for 20 min.. The resulting pellet is resuspended in Tyrode's buffer (NaCl, 7.01 g/l; KCl, 0194 g/l; NaHCO₃, 1.01 g/l; Glucose, 1.09 g/l; NaH₂PO₄, 0.061 g/l; Hepes, 2.380 g/l; albumin, 3.5 g/l) and the platelet suspension is applied on to a ^RSepharose CL 20 column. Equilibrium and elution is done with Tyrode's buffer. Platelets are recovered in the void volume. Final platelet concentration is adjusted to 4 X 108 platelets/ml. For the aggregation studies, GFP in Tyrodes buffer is mixed with calcium chloride (final concentration […]) and an agonist (ADP or Thrombin) with or without test compound (1 to 300 µM) and incubated at 37°C for 3 min.. After the addition of fibrinogen (final conc. 1 mg/ml) the aggregation is recorded.
Aggregation maximum for PRP or GFP without any inhibitor is taken as 100 % aggregation and is compared with aggregation maximum of RPR or GFP incubated with the test compound.

From patent EP0659743A1, “Piperidine derivatives as inhibitors of platelet aggregation and their preparation” (HOECHST AKTIENGESELLSCHAFT, priority 1993, dated 1995) come the findings set out here.

With `COC(=O)COc1ccc(C=CC(=O)c2c(OC)cc(OC)c(C3CCN(C)CC3O)c2O)cc1` (centres unmarked) [Compound 2], the values for the IC50 (in experiment [1]; in the experiment on Human Platelet) were 0.53 µM and 5.3 µM, respectively. `COC(=O)COc1ccc(C=CC(=O)c2c(OC)cc(OC)c(C3CCN(C)CC3)c2O)cc1` [Compound 6]: the IC50 with Human Platelet turned out to be 17 µM. With `COC(=O)COc1ccc(CCC(=O)c2c(OC)cc(OC)c(C3CCN(C)CC3)c2O)cc1` [Compound 7], the figures for the IC50 (in experiment [1]; in the experiment with Human Platelet) were 2 µM and 8 µM, respectively.
